Measurements: paper PMC3411462, “Long-acting κ opioid antagonists nor-BNI, GNTI and JDTic: pharmacokinetics in mice and lipophilicity” (BMC Pharmacology, 2012)
Where two headings read alike, the source gives them in different places.

Columns and labels:
[1] = Brain and plasma concentrations in mice after intraperitoneal administration (LC-MS-MS), non-compartmental analysis; type: in vivo; details: for concentration at 2 h / half-life / AUC(0-inf) / concentration at 0.5 h / concentration at 1 h / concentration at 4 h / concentration at 24 h / CL/F / Vd/F: 10 mg/kg; for half-life: read-out: t1/2 (converted); for k el: read-out: Lambda_z (converted)
Water solubility = type: physicochemical; details: distilled water, thermodynamic from solid, 25 °C, salt tested
Method: Distilled water was added slowly by microsyringe to 10–15 mg of drug in a glass vial, swirling until no solid was visible.

[2] = Octanol-buffer distribution (log D7.4); type: physicochemical; details: 1-octanol/PBS
[3] = Plasma binding (unbound fraction by ultracentrifugation); type: in vitro ADME; details: 5 μM drug, mean, n = 3
In short: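 Plasma was spiked with 5 μM drug and ultracentrifuged at 600,000 g for 5 h at 37 °C. The middle water layer and the original spiked matrix were matrix-matched, extracted with acetonitrile and measured by LC-MS-MS. Fraction unbound is the water-layer to spiked-matrix concentration ratio, corrected for dilution.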

[4] = male, Swiss-Webster, mouse, ip, brain NCA, 10 mg/kg i.p.
[5] = male, Swiss-Webster, mouse, ip, plasma NCA, 10 mg/kg i.p.
[6] = male, Swiss-Webster, mouse, plasma, intraperitoneal, read-out: Conc (plasma, NCA input)
[7] = male, Swiss-Webster, mouse, plasma, ip, 10 mg/kg i.p., read-out: mean (plasma)
[8] = male, Swiss-Webster, mouse, plasma, ip, 10 mg/kg i.p., individual mice, read-out: [drug],plasma (free base equivalent)

Q: Which results are given for `CC(C)[C@@H](CN1CC[C@@](C)(c2cccc(O)c2)[C@@H](C)C1)NC(=O)[C@H]1Cc2ccc(O)cc2CN1` [JDTic, (3R)-7-Hydroxy-N-((1S)-1-{[(3R,4R)-4-(3-hydroxyphenyl)-3,4-dimethyl-1-piperidinyl]methyl}-2-methylpropyl)-1,2,3,4-tetrahydro-3-isoquinolinecarboxamide]?
A: concentration at 2 h ([1]; male, Swiss-Webster, mouse, brain, ip, 10 mg/kg i.p., <MRC substituted by MRC/2, read-out: mean (brain)): 38.4 ng/g; half-life ([1]; male, Swiss-Webster, mouse, brain, ip, brain NCA, 10 mg/kg i.p.): 220 h; AUC(0-inf) ([1]; male, Swiss-Webster, mouse, brain, ip, brain, 10 mg kg^-1 i.p., non-compartmental analysis, read-out: AUC 0–∞,brain): 10300 ng·h/mL; Tmax ([1]; male, Swiss-Webster, mouse, in vivo, ip, ·2HCl salts, 10 mg kg^-1 i.p., mice): 0.5 h; AUC(0-t) [1, 4]: 4400 ng·h/mL; Tmax [1, 4]: 0.5 h; Cmax ([1]; male, Swiss-Webster, mouse, ip, brain NCA, 10 mg/kg i.p., read-out: Cmax): 71.1 ng/mL; k el [1, 4]: 8.75e-07 s⁻¹; AUC(0-t) [1, 5]: 866 ng·h/mL; Tmax [1, 5]: 0.5 h; k el [1, 5]: 3.75e-05 s⁻¹; MRT inf ([1]; male, Swiss-Webster, mouse, ip, plasma NCA, 10 mg/kg i.p., read-out: MRT 0-inf_obs): 4.3 h; Cmax ([1]; male, Swiss-Webster, mouse, ip, plasma, 10 mg kg^-1 i.p., mice, read-out: C max,p): 245 ng/mL; concentration at 0.5 h [1, 6]: 245 ng/mL; concentration at 1 h [1, 6]: 154 ng/mL; concentration at 2 h [1, 6]: 56.9 ng/mL; concentration at 4 h [1, 6]: 46.6 ng/mL; concentration at 24 h [1, 6]: 3 ng/mL; concentration at 0.5 h [1, 7]: 245 ng/mL; concentration at 1 h [1, 7]: 154 ng/mL; concentration at 2 h [1, 8]: 42.3 ng/mL; concentration at 2 h [1, 7]: 57 ng/mL; concentration at 4 h [1, 7]: 47 ng/mL; concentration at 24 h [1, 8]: 5 ng/mL; concentration at 24 h ([1]; male, Swiss-Webster, mouse, plasma, ip, 10 mg/kg i.p., <MRC substituted by MRC/2, read-out: mean (plasma)): 3 ng/mL; AUC(0-inf) ([1]; male, Swiss-Webster, mouse, plasma, ip, plasma NCA, 10 mg/kg i.p., read-out: AUC 0-inf_obs): 888 ng·h/mL; CL/F ([1]; male, Swiss-Webster, mouse, plasma, ip, plasma NCA, 10 mg/kg i.p., read-out: Cl/F_obs (converted)): 188 mL/min/kg; Vd/F ([1]; male, Swiss-Webster, mouse, plasma, ip, plasma NCA, 10 mg/kg i.p., read-out: Vz/F_obs): 83.3 L/kg; half-life ([1]; male, Swiss-Webster, mouse, plasma, ip, plasma NCA, 10 mg/kg i.p.): 5.13 h; AUC(0-inf) ([1]; male, Swiss-Webster, mouse, plasma, ip, plasma, 10 mg kg^-1 i.p., non-compartmental analysis, read-out: AUC 0–∞,p): 888 ng·h/mL; CL/F ([1]; male, Swiss-Webster, mouse, plasma, ip, plasma, 10 mg kg^-1 i.p., non-compartmental analysis, read-out: CL/F (converted)): 18.3 mL/min/kg; Vd/F ([1]; male, Swiss-Webster, mouse, plasma, ip, plasma, 10 mg kg^-1 i.p., non-compartmental analysis, read-out: V z /F): 83 L/kg; Decline of mean brain level ([1]; over 24 hours, 10 mg kg^-1 i.p.): 56%; AUMC 0-inf_obs ([1]; plasma NCA, 10 mg/kg i.p.): 3814.94 ng/ml*h^2; Tlag ([1]; plasma NCA, 10 mg/kg i.p.): 0 h; Maximal plasma concentration relative to those after nor-BNI and GNTI ([1]; same dose, 10 mg kg^-1 i.p.): less than 10%; C max,brain,u ([1]; unbound brain, 10 mg kg^-1 i.p., in vivo brain binding assumed at least 3-fold greater than homogenate): < 4 nM; Decline of mean plasma concentration from peak ([1]; within 1 hour, 10 mg kg^-1 i.p.): 37%; Decline of mean plasma concentration from peak ([1]; within 2 hours, 10 mg kg^-1 i.p.): 77%; Decline of mean plasma concentration from peak ([1]; within 4 hours, 10 mg kg^-1 i.p.): at least 80%; solubility (Water solubility): > 45 mM; logD ([2]; pH 7.4, pooled mixing times 1, 10, 30 min): 1.84; logD at 1 min ([2]; mixing time 1 min, octanol/PBS pH 7.4): 1.84; logD at 10 min ([2]; mixing time 10 min, octanol/PBS pH 7.4): 1.9; logD at 30 min ([2]; mixing time 30 min, octanol/PBS pH 7.4): 1.77; fraction unbound at 5 h, 5 μM [3]: 0.19
